Earlier results as cited in patent publication US11957650B2, “Formulation and method for the prevention and/or treatment of hangover symptoms” (PHOENIX PHARMACEUTICALS AUSTRALIA PTY LTD, priority 2016, dated 2024).

Test system: acetaldehyde poisoning in rats
Conditions: for Effective dose in rats: footnotes * and † not given

## Cc1ncc(C[n+]2csc(CCO)c2C)c(N)n1 [thiamine, Thiamine]
Addition of thiamine to L-cysteine [13, 14]
  mortality in rats poisoned with acetaldehyde, thiamine added to L-cysteine: enhanced the ability of L-cysteine to reduce mortality

## Cc1ncc(C[n+]2csc(CCO)c2C)c(N)n1.Cl.[Cl-] [Thiamine•HCl]
  Effective dose in rats: 42 mg

## O=C1O[C@H]([C@@H](O)CO)C(O)=C1O [Ascorbic acid]
  Effective dose in rats: 50 mg

## N[C@@H](CS)C(=O)O [L-cysteine]
L-cysteine alone [13, 14]
  mortality due to acetaldehyde poisoning: markedly reduce the mortality
  Effective dose in rats: 34 mg
